Laboratory results as given in PMC4032190 (Journal of medicinal chemistry, 2014).

How the values were obtained:
Mino cells = experiment: PARP cleavage; format: cell-based, human; settings: 50 µM, 72 h, immunoblot
Jeko cells = experiment: PARP cleavage; format: cell-based, human; settings: 50 µM, 72 h, immunoblot
XBP-1s expression [1] = experiment: Inhibition of XBP-1s expression in LPS-stimulated wild-type mouse B cells; format: cell-based; settings: immunoblot
[2] = molecular target: recombinant human IRE-1 (RNase activity) (Homo sapiens, UniProt O75460); experiment: In vitro IRE-1 RNase FRET-suppression assay; format: biochemical; settings: up to 20 µM
XBP-1s expression [3] = experiment: Inhibition of XBP-1s expression in Mino cells; format: cell-based, human; settings: 20 µM, 24 h, immunoblot
XBP-1s expression [4] = experiment: Inhibition of XBP-1s expression in Jeko cells; format: cell-based, human; settings: 20 µM, 24 h, immunoblot
[5] = Chemical stability in FRET-suppression assay buffer; settings: rt, over 12 hours, LCMS

Chain of recombinant human IRE-1 (RNase activity) (O75460 547-977): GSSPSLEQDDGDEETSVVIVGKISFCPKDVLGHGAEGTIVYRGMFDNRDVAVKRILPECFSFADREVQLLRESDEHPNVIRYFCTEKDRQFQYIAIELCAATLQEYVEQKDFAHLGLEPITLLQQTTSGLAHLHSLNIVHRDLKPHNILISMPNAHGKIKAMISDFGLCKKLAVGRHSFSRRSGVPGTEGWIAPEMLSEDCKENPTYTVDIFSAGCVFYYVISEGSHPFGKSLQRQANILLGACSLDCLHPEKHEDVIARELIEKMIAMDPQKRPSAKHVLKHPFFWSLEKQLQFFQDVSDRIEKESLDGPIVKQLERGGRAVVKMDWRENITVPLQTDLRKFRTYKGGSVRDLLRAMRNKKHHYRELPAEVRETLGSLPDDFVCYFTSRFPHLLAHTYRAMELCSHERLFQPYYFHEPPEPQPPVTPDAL

## CN1CCc2c(c(=O)oc3c(C=O)c(O)ccc23)C1 [Compound 30, 8-Hydroxy-3-methyl-5-oxo-2,3,4,5-tetrahydro-1H-chromeno[3,4-c]pyridine-7-carbaldehyde]
Mino cells
  PARP cleavage: more strongly than either 21b or 5
Jeko cells
  PARP cleavage: more strongly than either 21b or 5

## Cc1cc(=O)oc2c(C=O)c(O)ccc12 [Compound 5]
XBP-1s expression [1]; 20 µM, 24 h
  inhibition of XBP-1s expression: strong inhibition

## O=Cc1c(O)ccc2ccccc12 [Compound 2]
XBP-1s expression [1]; 50 µM
  inhibition of XBP-1s expression: strong inhibition

## NS(=O)(=O)c1cccs1 [Compound 8, reference compound]
[2]
  IRE-1 RNase inhibition (in words): no appreciable inhibition

## C=C(C)CN1CCc2c(c(=O)oc3c(C=O)c(O)ccc23)C1 [Compound 33, 8-Hydroxy-3-(2-methylallyl)-5-oxo-2,3,4,5-tetrahydro-1H-chromeno[3,4-c]pyridine-7-carbaldehyde]
XBP-1s expression [3]
  suppression of XBP-1s expression: significant activity
XBP-1s expression [4]
  suppression of XBP-1s expression: significant activity

## C=CCOC(=O)N1CCc2c(c(=O)oc3c(C4OCCCO4)c(O)ccc23)C1 [Compound 24, Allyl 7-(1,3-dioxan-2-yl)-8-hydroxy-5-oxo-4,5-dihydro-1H-chromeno[3,4-c]pyridine-3(2H)-carboxylate]
[5]
  decomposition of the 1,3-dioxane moiety: no significant decomposition

## C=CCOC(=O)N1CCc2c(c(=O)oc3c(C=O)c(OCc4ccccc4)ccc23)C1 [Compound 27, Allyl 7-formyl-8-benzyloxy-5-oxo-4,5-dihydro-1H-chromeno[3,4-c]pyridine-3(2H)-carboxylate]
[2]
  IRE-1 RNase inhibition (in words): complete loss of potency below 20 µM
